Earlier results, collected in patent publication US20130028868A1 (priority 2011, published 2013).
Like-named read-outs stand apart in the source and are kept apart here.

Columns and labels:
[1] = BDIX rats (50 rats); 3 weeks, 1 mg/kg/week
[2] = not given; remark: listed apart in the source
cells = details: in vitro experiments
[3] = not given; remark: listed apart in the source
[4] = in vivo
[5] = by Cisplatin

Row | SMILES | deaths within 455 days after first time administration [1] | died from leukemia [1] | died from malignant tumor [1] | died from renal fibrosarcoma [1] | marrow inhibition incidence (dosage amount≦100 mg/m2) | marrow inhibition incidence (dosage≧120 mg/m2) | excreted along with urine ([2]; 96 hours after treatment) [%˜45] | drug in human milk ([2]; reports) | chromosome aberration (animal tissue culture) | radiosensitization (cells) | renal clearance of the drug (share) ([3]; in vivo) | protein binding ([3]; intravenous paclitaxel) | incidence rate of serious neurotoxicity [4] [%] | reduction of clearance of the drug [5]
1 | N.N.[Cl][Pt][Cl] [Cisplatin] | 33 | 12 | 13 | 1 | 10˜20% | about 40% | 25 | drug detected in human milk | causing chromosome aberration |  |  |  |  | 
2 | CC(=O)O[C@H]1C(=O)[C@@]2(C)[C@H]([C@H](OC(=O)c3ccccc3)[C@]3(O)C[C@H](OC(=O)[C@H](O)[C@@H](NC(=O)c4ccccc4)c4ccccc4)C(C)=C1C3(C)C)[C@]1(OC(C)=O)CO[C@@H]1C[C@@H]2O [Paclitaxel] |  |  |  |  |  |  |  |  |  | significant radiosensitization | 1-8% | 89%-98 | 6 | about ⅓
